Laboratory results published in patent US20240368120A1 (Terns Pharmaceuticals, Inc., priority 2023, published 2024).

Target: T1, human GLP-1R receptor (Homo sapiens, UniProt P43220)
T1 construct: expressed in transfected cells
Test: GLP-1R low expression cell assay (cAMP TR-FRET, CHO-K1_hGLP-1Rlow_clone10 cells)
Assay type: cell-based
Conditions: for EC50: cAMP TR-FRET, 30 min at 25° C.; for Emax: maximum activation relative to control GLP-1 peptide agonist
Experimental: Stable cell lines expressing high and low GLP-1R surface expression were generated in CHO-K1 cells transfected (Fugene 6) with a puromycin selectable DNA plasmid encoding human GLP-1R receptor (accession number: NM_002062.5) under control of an EF1A promoter. Transfected cells were seeded into 24-well plates (9,000 cells/well) containing complete medium and incubated in a humidified incubator at 37° C. with 5% carbon dioxide. After overnight incubation, medium was replaced with complete medium supplemented with puromycin (6 μg/mL) and refreshed every 2-3 days to select for stably transfected cells. Individual pools of selected cells were expanded prior to analysis for responsiveness to GLP-1 control peptide using a TR-FRET assay to detect cAMP (LANCE Ultra CAMP Assay, Perkin Elmer). Briefly, cells were collected in Versene solution, plated in 384-well plates (1,000 cells/well) and combined with serially diluted GLP-IR control peptide (10 nL) using an acoustic dispenser (ECHO). Plates were incubated for 30 minutes at 25° C. prior to the addition of EU-CAMP tracer (5 μL) and Ulight-anti-CAMP (5 μL) reagents to each well, followed by 15 minutes incubation at 25° C. TR-FRET signal was detected using an En Vision Multimode Plate Reader (excitation=320 nm; emission=615 and 655 nm). Dose-response curves were used to generate EC50 values as a measure of responsiveness to the GLP-IR control peptide. Selected cell lines were monitored for responsiveness over multiple passages to ensure stability. […] Briefly, GLP-IR expression was analyzed by flow cytometry using a fluorescein-labeled Exendin-4 peptide fluorescent probe (FLEX). Cells were harvested in Versene solution and washed 3-times with PBS+0.5% BSA before incubation with FLEX reagent (10 μM) for 2 hours at room temperature. After incubation, cells were washed 3-times in PBS+0.5% BSA before final resuspension in PBS prior to analysis by flow cytometry to measure FLEX mean fluorescence intensity (MFI) as a measure of GLP-IR expression on the cell surface.
For compound testing in the CHO-K1_hGLP-IRlow_clone10 cell line, cells were seeded in 384-well plates (1,000 cells/well). Test compounds were serially diluted in DMSO (10-point, 3-fold dilution), added to wells using an ECHO dispenser (10 nL/well) and plates were centrifuged for 1 min and agitated for 2 min at room temperature prior to 30-minute incubation at 25° C. After incubation, Eu-CAMP (5 μL) and Ulight-anti-cAMP (5 μL) reagents were added to each well, followed by centrifugation for 1 minute, agitation for 2 minutes at room temperature, and final incubation of the plates at 25° C. for 15 minutes. Plates were read using an EnVision microplate reader (excitation=320 nm; emission=615 and 655 nm). Dose-response curves were generated from duplicate wells based on percent activation calculated relative to a control GLP-1 peptide agonist that was run in parallel. EC50 values were determined by fitting percent activation as a function of compound concentration using the Hill equation (XLfit).
The compounds tested were compound samples prepared according to the General Procedures described in the Examples section.

T1 sequence (P43220 24-463): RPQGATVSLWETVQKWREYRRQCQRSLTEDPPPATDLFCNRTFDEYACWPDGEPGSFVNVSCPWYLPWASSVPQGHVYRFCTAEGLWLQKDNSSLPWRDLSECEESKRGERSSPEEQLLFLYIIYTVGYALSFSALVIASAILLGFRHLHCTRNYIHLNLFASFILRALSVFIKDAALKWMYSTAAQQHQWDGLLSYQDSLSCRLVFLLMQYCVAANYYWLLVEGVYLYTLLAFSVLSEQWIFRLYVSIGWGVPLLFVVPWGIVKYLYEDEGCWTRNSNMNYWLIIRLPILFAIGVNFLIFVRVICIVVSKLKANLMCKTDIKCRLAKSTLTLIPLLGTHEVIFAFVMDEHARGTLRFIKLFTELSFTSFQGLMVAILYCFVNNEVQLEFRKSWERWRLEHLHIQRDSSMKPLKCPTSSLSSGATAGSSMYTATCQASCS

EC50 [nM]	Emax [%]	Compound
100 to 1000	> 85	N#Cc1ccc(COc2cccc(C3CCN(Cc4nc5ccc(C(=O)O)c6c5n4CCO6)CC3)n2)c(F)c1 [Compound 104, 2-((4-(6-((4-Cyano-2-fluorobenzyl)oxy)pyridin-2-yl)piperidin-1-yl)methyl)-3,4-dihydro-5-oxa-1,2a-diazaacenaphthylene-6-carboxylic acid]
< 10	> 85	N#Cc1ccc(COc2cccc(C3CCN(Cc4nc5c(OC(F)F)cc(C(=O)O)cc5n4CC4(C#N)CC4)CC3)n2)c(F)c1 [Compound 105, 2-((4-(6-((4-Cyano-2-fluorobenzyl)oxy)pyridin-2-yl)piperidin-1-yl)methyl)-1-((1-cyanocyclopropyl)methyl)-4-(difluoromethoxy)-1H-benzo[d]imidazole-6-carboxylic acid]
< 10	> 85	COCCn1c(CN2CCC(c3cccc(OCc4ccc(C#N)cc4F)n3)CC2)nc2c(OC(F)F)cc(C(=O)O)cc21 [Compound 106, 2-((4-(6-((4-Cyano-2-fluorobenzyl)oxy)pyridin-2-yl)piperidin-1-yl)methyl)-4-(difluoromethoxy)-1-(2-methoxyethyl)-1H-benzo[d]imidazole-6-carboxylic acid]
> 1000	50 to 85	COCCc1nc(C(=O)O)cc2c1nc(CN1CCC(c3cccc(OCc4ccc(C#N)cc4F)n3)CC1)n2C [Compound 107, 2-((4-(6-((4-cyano-2-fluorobenzyl)oxy)pyridin-2-yl)piperidin-1-yl)methyl)-4-(2-methoxyethyl)-1-methyl-1H-imidazo[4,5-c]pyridine-6-carboxylic acid]
< 10	> 85	[2H]C([2H])([2H])Oc1cc(C(=O)O)cc2c1nc(CN1CCC(c3cccc(OCc4ccc(C#N)cc4F)n3)CC1)n2C[C@@H]1CCO1 [Compound 108, (S)-2-((4-(6-((4-Cyano-2-fluorobenzyl)oxy)pyridin-2-yl)piperidin-1-yl)methyl)-4-(methoxy-d3)-1-(oxetan-2-ylmethyl)-1H-benzo[d]imidazole-6-carboxylic acid]
< 10	> 85	N#Cc1ccc(COc2cccc(C3CCN(Cc4nc5c(OC(F)F)cc(C(=O)O)cc5n4C[C@@H]4CCS4(=O)=O)CC3)n2)c(F)c1 [Compound 110, (S)-2-((4-(6-((4-Cyano-2-fluorobenzyl)oxy)pyridin-2-yl)piperidin-1-yl)methyl)-4-(difluoromethoxy)-1-((1,1-dioxidothietan-2-yl)methyl)-1H-benzo[d]imidazole-6-carboxylic acid]
100 to 1000	> 85	Cn1c(CN2CCC(c3cccc(OCc4ccc(C#N)cc4F)n3)CC2)nc2c(N3CCOCC3)cc(C(=O)O)cc21 [Compound 112, 2-((4-(6-((4-cyano-2-fluorobenzyl)oxy)pyridin-2-yl)piperidin-1-yl)methyl)-1-methyl-4-morpholino-1H-benzo[d]imidazole-6-carboxylic acid]
< 10	> 85	Cn1c(CN2CCC(c3cccc(OCc4ccc(C#N)cc4F)n3)CC2)nc2c(O)cc(C(=O)O)cc21 [Compound 114, 2-((4-(6-((4-Cyano-2-fluorobenzyl)oxy)pyridin-2-yl)piperidin-1-yl)methyl)-4-hydroxy-1-methyl-1H-benzo[d]imidazole-6-carboxylic acid]
< 10	> 85	Cn1c(CN2CCC(c3cccc(OCc4ccc(C#N)cc4F)n3)CC2)nc2c(N)cc(C(=O)O)cc21 [Compound 115, 4-amino-2-((4-(6-((4-cyano-2-fluorobenzyl)oxy)pyridin-2-yl)piperidin-1-yl)methyl)-1-methyl-1H-benzo[d]imidazole-6-carboxylic acid]
10 to 100	> 85	CC(=O)Nc1cc(C(=O)O)cc2c1nc(CN1CCC(c3cccc(OCc4ccc(C#N)cc4F)n3)CC1)n2C [Compound 116, 4-acetamido-2-((4-(6-((4-cyano-2-fluorobenzyl)oxy)pyridin-2-yl)piperidin-1-yl)methyl)-1-methyl-1H-benzo[d]imidazole-6-carboxylic acid]
< 10	> 85	COc1cc(C(=O)O)c(F)c2c1nc(CN1CCC(c3cccc(OCc4ccc(C#N)cc4F)n3)CC1)n2C[C@@H]1CCO1 [Compound 117, (S)-2-((4-(6-((4-Cyano-2-fluorobenzyl)oxy)pyridin-2-yl)piperidin-1-yl)methyl)-7-fluoro-4-methoxy-1-(oxetan-2-ylmethyl)-1H-benzo[d]imidazole-6-carboxylic acid]
10 to 100	50 to 85	C[C@@H](c1nc2c(OC(F)F)cc(C(=O)O)cc2n1C)N1CCC(c2cccc(OCc3ccc(C#N)cc3F)n2)CC1 [Compound 119, (S)-2-(1-(4-(6-((4-Cyano-2-fluorobenzyl)oxy)pyridin-2-yl)piperidin-1-yl)ethyl)-4-(difluoromethoxy)-1-methyl-1H-benzo[d]imidazole-6-carboxylic acid]
< 10	> 85	Cn1c(Cc2ccc(-c3cccc(OCc4ccc(C#N)cc4F)n3)cc2F)nc2c(OC(F)F)cc(C(=O)O)cc21 [Compound 120, 2-(4-(6-((4-Cyano-2-fluorobenzyl)oxy)pyridin-2-yl)-2-fluorobenzyl)-4-(difluoromethoxy)-1-methyl-1H-benzo[d]imidazole-6-carboxylic acid]
< 10	> 85	Cn1c(CN2CCC(c3cccc(OCc4ccc(C#N)cc4F)n3)CC2)nc2c(OCC(F)(F)F)cc(C(=O)O)cc21 [Compound 121, 2-((4-(6-((4-Cyano-2-fluorobenzyl)oxy)pyridin-2-yl)piperidin-1-yl)methyl)-1-methyl-4-(2,2,2-trifluoroethoxy)-1H-benzo[d]imidazole-6-carboxylic acid]
> 1000	> 85	C[C@H](c1nc2c(OC(F)F)cc(C(=O)O)cc2n1C)N1CCC(c2cccc(OCc3ccc(C#N)cc3F)n2)CC1 [Compound 122, (R)-2-(1-(4-(6-((4-Cyano-2-fluorobenzyl)oxy)pyridin-2-yl)piperidin-1-yl)ethyl)-4-(difluoromethoxy)-1-methyl-1H-benzo[d]imidazole-6-carboxylic acid]
10 to 100	> 85	Cn1c(CN2CCC(c3cccc4c3O[C@@H](c3ccc(C#N)cc3F)CO4)CC2)nc2c(OC(F)F)cc(C(=O)O)cc21 [Compound 123, (S)-2-((4-(3-(4-Cyano-2-fluorophenyl)-2,3-dihydrobenzo[b][1,4]dioxin-5-yl)piperidin-1-yl)methyl)-4-(difluoromethoxy)-1-methyl-1H-benzo[d]imidazole-6-carboxylic acid]
> 1000	25 to 50	Cn1c(CN2CCC(c3cccc4c3O[C@H](c3ccc(C#N)cc3F)CO4)CC2)nc2c(OC(F)F)cc(C(=O)O)cc21 [Compound 124, (R)-2-((4-(3-(4-Cyano-2-fluorophenyl)-2,3-dihydrobenzo[b][1,4]dioxin-5-yl)piperidin-1-yl)methyl)-4-(difluoromethoxy)-1-methyl-1H-benzo[d]imidazole-6-carboxylic acid]

Compound	EC50 [nM]	Emax [%]
CC(C)(C)Oc1cc(C(=O)O)cc2c1nc(CN1CCC(c3cccc(OCc4ccc(C#N)cc4F)n3)CC1)n2C[C@@H]1CCO1 [Compound 109, (S)-4-(tert-Butoxy)-2-((4-(6-((4-cyano-2-fluorobenzyl)oxy)pyridin-2-yl)piperidin-1-yl)methyl)-1-(oxetan-2-ylmethyl)-1H-benzo[d]imidazole-6-carboxylic acid]	< 10	> 85
